We go through 25 compounds from US11987588B2, “Modulators of the beta-3 adrenergic receptor useful for the treatment or prevention of heart failure and disorders related thereto” (Arena Pharmaceuticals, Inc., priority 2017, dated 2024).

This test has as its target Beta-3 Adrenergic Receptor (Homo sapiens (Human), UniProt P13945). In words: Homogeneous Time-Resolved Fluorescence (HTRF) cAMP antagonist assay, IC50 determination. Format: cell-based. To be noted: CHO-K1 cells stably expressing recombinant receptor, isoproterenol at EC90. In short, it runs like this: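 Antagonist mode: isoproterenol at its predetermined EC90 added after compound to recombinant CHO-K1 cells in IBMX-containing PBS, 1 h, room temperature. Compounds tested as 5-fold, 10-point dilutions, top final typically 10 or 100 μM. HTRF signal converted to cAMP via standard curve, giving IC50.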

Sequence of Beta-3 Adrenergic Receptor (P13945 whole entry, species assumed): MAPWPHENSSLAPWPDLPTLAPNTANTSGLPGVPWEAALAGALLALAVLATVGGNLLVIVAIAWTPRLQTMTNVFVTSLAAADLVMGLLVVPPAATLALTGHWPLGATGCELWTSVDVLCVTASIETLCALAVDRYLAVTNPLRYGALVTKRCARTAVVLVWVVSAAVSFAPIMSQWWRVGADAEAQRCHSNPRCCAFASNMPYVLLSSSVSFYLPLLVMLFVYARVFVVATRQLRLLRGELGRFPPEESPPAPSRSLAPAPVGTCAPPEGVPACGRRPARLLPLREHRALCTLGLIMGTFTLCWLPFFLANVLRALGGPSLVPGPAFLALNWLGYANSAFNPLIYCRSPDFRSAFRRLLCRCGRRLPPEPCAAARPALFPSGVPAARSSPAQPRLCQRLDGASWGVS

For the compound `CNS(=O)(=O)c1cccc(OC[C@@H](O)CNC2COC3(CCN(S(=O)(=O)c4cccc(C(=O)O)c4)CC3)C2)c1` (stereo partly drawn) [Compound 56, 3-(3-((S)-2-hydroxy-3-(3-(N-methylsulfamoyl)phenoxy)propylamino)-1-oxa-8-azaspiro[4.5]decan-8-ylsulfonyl)benzoic acid], the half-maximal inhibitory concentration (IC50) worked out at 387 nM.

As for `NS(=O)(=O)c1cccc(OC[C@@H](O)CN[C@H]2COC3(CCN(S(=O)(=O)c4ccc5ncccc5c4)CC3)C2)c1` [Compound 566, 3-((S)-2-hydroxy-3-((R)-8-(quinolin-6-ylsulfonyl)-1-oxa-8-azaspiro[4.5]decan-3-ylamino)propoxy)benzenesulfonamide], the IC50 was found to be 78.6 nM.

As to `CCc1nc2cc(S(=O)(=O)N3CCC4(CC3)C[C@@H](NC[C@H](O)COc3cccc(S(=O)(=O)NC)c3)CO4)cnc2[nH]1` [Compound 515, 3-((S)-3-((R)-8-(2-ethyl-3H-imidazo[4,5-b]pyridin-6-ylsulfonyl)-1-oxa-8-azaspiro[4.5]decan-3-ylamino)-2-hydroxypropoxy)-N-methylbenzenesulfonamide], the IC50 came to 74.9 nM.

For the compound `CN(C)CCCNS(=O)(=O)c1cccc(OC[C@@H](O)CNC2COC3(CCN(S(=O)(=O)c4ccc5c(c4)NC(=O)CO5)CC3)C2)c1` (stereo partly drawn) [Compound 311, N-(3-(dimethylamino)propyl)-3-((2S)-2-hydroxy-3-(8-(3-oxo-3,4-dihydro-2H-benzo[b][1,4]oxazin-6-ylsulfonyl)-1-oxa-8-azaspiro[4.5]decan-3-ylamino)propoxy)benzenesulfonamide], the 50% inhibitory concentration (IC50) was 2000 nM.

On to `Cc1cccc2c(=O)c(S(=O)(=O)N3CCC4(CC3)C[C@@H](NC[C@H](O)COc3cccc(S(N)(=O)=O)c3)CO4)c[nH]c12` [Compound 553, 3-((S)-2-hydroxy-3-((R)-8-(8-methyl-4-oxo-1,4-dihydroquinolin-3-ylsulfonyl)-1-oxa-8-azaspiro[4.5]decan-3-ylamino)propoxy)benzenesulfonamide], for which the IC50 stood at 23.6 nM.

For the compound `CNS(=O)(=O)c1cccc(OC[C@@H](O)CN[C@@H]2COC3(CCN(S(=O)(=O)c4cnc5c(c4)N(C)CCO5)CC3)C2)c1` [Compound 413, 3-((S)-2-hydroxy-3-((S)-8-(1-methyl-2,3-dihydro-1H-pyrido[2,3-b][1,4]oxazin-7-ylsulfonyl)-1-oxa-8-azaspiro[4.5]decan-3-ylamino)propoxy)-N-methylbenzenesulfonamide], the IC50 amounted to 14 nM.

On to `CNS(=O)(=O)c1cccc(OC[C@@H](O)CN[C@H]2COC3(CCN(S(=O)(=O)c4cnc5c(c4)C(=O)NC5)CC3)C2)c1` [Compound 478, 3-((S)-2-hydroxy-3-((R)-8-(5-oxo-6,7-dihydro-5H-pyrrolo[3,4-b]pyridin-3-ylsulfonyl)-1-oxa-8-azaspiro[4.5]decan-3-ylamino)propoxy)-N-methylbenzenesulfonamide], for which the concentration for half-maximal inhibition (IC50) is 204 nM.

Consider `CNS(=O)(=O)c1cccc(OC[C@@H](O)CN[C@H]2COC3(CCN(S(=O)(=O)c4cc(C)ccc4F)CC3)C2)c1` [Compound 269, 3-((S)-3-((R)-8-(2-fluoro-5-methylphenylsulfonyl)-1-oxa-8-azaspiro[4.5]decan-3-ylamino)-2-hydroxypropoxy)-N-methylbenzenesulfonamide], for which the IC50 amounted to 24.7 nM.

Consider `CN(C)CCCNS(=O)(=O)c1cccc(OC[C@@H](O)CNC2COC3(CCN(S(=O)(=O)c4ccc5nsnc5c4)CC3)C2)c1` (stereo partly drawn) [Compound 312, 3-((2S)-3-(8-(benzo[c][1,2,5]thiadiazol-5-ylsulfonyl)-1-oxa-8-azaspiro[4.5]decan-3-ylamino)-2-hydroxypropoxy)-N-(3-(dimethylamino)propyl)benzenesulfonamide], for which the IC50 stood at 3170 nM.

Consider `CNS(=O)(=O)c1cccc(OC[C@@H](O)CNC2COC3(CCN(S(=O)(=O)c4ccc(C)cc4OC)CC3)C2)c1` (stereo partly drawn) [Compound 135, 3-((2S)-2-hydroxy-3-(8-(2-methoxy-4-methylphenylsulfonyl)-1-oxa-8-azaspiro[4.5]decan-3-ylamino)propoxy)-N-methylbenzenesulfonamide], for which the IC50 was 33.3 nM.

Turning to `CNS(=O)(=O)c1cccc(OC[C@@H](O)CNC2COC3(CCN(S(=O)(=O)c4cc(Br)ccc4OCCN4CCCC4)CC3)C2)c1` (stereo partly drawn) [Compound 412, 3-((2S)-3-(8-(5-bromo-2-(2-(pyrrolidin-1-yl)ethoxy)phenylsulfonyl)-1-oxa-8-azaspiro[4.5]decan-3-ylamino)-2-hydroxypropoxy)-N-methylbenzenesulfonamide], the IC50 was 49.6 nM.

Take `CNS(=O)(=O)c1cccc(OC[C@@H](O)CNC2COC3(CCN(S(=O)(=O)c4c(C)noc4C)CC3)C2)c1` (stereo partly drawn) [Compound 188, 3-((2S)-3-(8-(3,5-dimethylisoxazol-4-ylsulfonyl)-1-oxa-8-azaspiro[4.5]decan-3-ylamino)-2-hydroxypropoxy)-N-methylbenzenesulfonamide]: the IC50 was 18.1 nM.

As for `CNS(=O)(=O)c1cccc(OC[C@@H](O)CN[C@H]2COC3(CCN(c4ncccn4)CC3)C2)c1` [Compound 576, 3-((S)-2-hydroxy-3-((R)-8-(pyrimidin-2-yl)-1-oxa-8-azaspiro[4.5]decan-3-ylamino)propoxy)-N-methylbenzenesulfonamide], the 50% inhibitory concentration (IC50) was found to be 528 nM.

As for `CCOc1ccc(S(=O)(=O)N2CCC3(CC2)CC(NC[C@H](O)COc2cccc(S(=O)(=O)NC)c2)CO3)cn1` (stereo partly drawn) [Compound 445, 3-((2S)-3-(8-(6-ethoxypyridin-3-ylsulfonyl)-1-oxa-8-azaspiro[4.5]decan-3-ylamino)-2-hydroxypropoxy)-N-methylbenzenesulfonamide], the concentration for half-maximal inhibition (IC50) was 30.4 nM.

Turning to `CNS(=O)(=O)c1cccc(OC[C@@H](O)CNC2COC3(CCN(S(=O)(=O)c4cn(C)cn4)CC3)C2)c1` (stereo partly drawn) [Compound 194, 3-((2S)-2-hydroxy-3-(8-(1-methyl-1H-imidazol-4-ylsulfonyl)-1-oxa-8-azaspiro[4.5]decan-3-ylamino)propoxy)-N-methylbenzenesulfonamide], the IC50 was 97.6 nM.

As for `CCNS(=O)(=O)c1cccc(OC[C@@H](O)CNC2COC3(CCN(S(=O)(=O)c4ccc5c(c4)N(C)CCO5)CC3)C2)c1` (stereo partly drawn) [Compound 234, N-ethyl-3-((2S)-2-hydroxy-3-(8-(4-methyl-3,4-dihydro-2H-benzo[b][1,4]oxazin-6-ylsulfonyl)-1-oxa-8-azaspiro[4.5]decan-3-ylamino)propoxy)benzenesulfonamide], the IC50 is 52.6 nM.

For `CNS(=O)(=O)c1cccc(OC[C@@H](O)CNC2COC3(CCN(S(=O)(=O)c4ccc(Br)c(Cl)c4)CC3)C2)c1` (stereo partly drawn) [Compound 155, 3-((2S)-3-(8-(4-bromo-3-chlorophenylsulfonyl)-1-oxa-8-azaspiro[4.5]decan-3-ylamino)-2-hydroxypropoxy)-N-methylbenzenesulfonamide], the concentration for half-maximal inhibition (IC50) came out at 4.36 nM.

For `CNS(=O)(=O)c1cccc(OC[C@@H](O)CNC2COC3(CCN(S(=O)(=O)c4ccc(OC)c(-c5ccc(CN)cc5)c4)CC3)C2)c1` (stereo partly drawn) [Compound 366, 3-((2S)-3-(8-(4′-(aminomethyl)-6-methoxybiphenyl-3-ylsulfonyl)-1-oxa-8-azaspiro[4.5]decan-3-ylamino)-2-hydroxypropoxy)-N-methylbenzenesulfonamide], the 50% inhibitory concentration (IC50) stood at 27.5 nM.

Take `CNS(=O)(=O)c1cccc(OC[C@@H](O)CN[C@H]2COC3(CCN(c4ccccn4)CC3)C2)c1` [Compound 561, 3-((S)-2-hydroxy-3-((R)-8-(pyridin-2-yl)-1-oxa-8-azaspiro[4.5]decan-3-ylamino)propoxy)-N-methylbenzenesulfonamide]: the half-inhibitory concentration (IC50) stood at 429 nM.

For the compound `CNS(=O)(=O)c1cccc(OC[C@@H](O)CNC2COC3(CCN(S(=O)(=O)c4cc(S(=O)(=O)c5ccccc5)cs4)CC3)C2)c1` (stereo partly drawn) [Compound 190, 3-((2S)-2-hydroxy-3-(8-(4-(phenylsulfonyl)thiophen-2-ylsulfonyl)-1-oxa-8-azaspiro[4.5]decan-3-ylamino)propoxy)-N-methylbenzenesulfonamide], the IC50 amounted to 18 nM.

Regarding `CCNS(=O)(=O)c1cccc(OC[C@@H](O)CNC2COC3(CCN(S(=O)(=O)c4cccc(-c5ccc(OCC#N)cc5)c4)CC3)C2)c1` (stereo partly drawn) [Compound 213, 3-((2S)-3-(8-(4′-(cyanomethoxy)biphenyl-3-ylsulfonyl)-1-oxa-8-azaspiro[4.5]decan-3-ylamino)-2-hydroxypropoxy)-N-ethylbenzenesulfonamide], the IC50 was found to be 49.1 nM.

With `CNS(=O)(=O)c1cccc(OC[C@@H](O)CNC2COC3(CCN(S(=O)(=O)c4cccc(-c5ccc(C(N)=O)cc5)c4)CC3)C2)c1` (stereo partly drawn) [Compound 368, 3′-(3-((S)-2-hydroxy-3-(3-(N-methylsulfamoyl)phenoxy)propylamino)-1-oxa-8-azaspiro[4.5]decan-8-ylsulfonyl)biphenyl-4-carboxamide], the IC50 turned out to be 35.2 nM.

As to `CNS(=O)(=O)c1cccc(OC[C@@H](O)CNC2COC3(CCN(S(=O)(=O)c4ccc5oncc5c4)CC3)C2)c1` (stereo partly drawn) [Compound 327, 3-((2S)-3-(8-(benzo[d]isoxazol-5-ylsulfonyl)-1-oxa-8-azaspiro[4.5]decan-3-ylamino)-2-hydroxypropoxy)-N-methylbenzenesulfonamide], the IC50 worked out at 92.1 nM.

Regarding `CN(C)CCCNS(=O)(=O)c1cccc(OC[C@@H](O)CNC2COC3(CCN(S(=O)(=O)c4cccc(Cl)c4)CC3)C2)c1` (stereo partly drawn) [Compound 307, 3-((2S)-3-(8-(3-chlorophenylsulfonyl)-1-oxa-8-azaspiro[4.5]decan-3-ylamino)-2-hydroxypropoxy)-N-(3-(dimethylamino)propyl)benzenesulfonamide], the half-maximal inhibitory concentration (IC50) was 3370 nM.

Turning to `CNS(=O)(=O)c1cccc(OC[C@@H](O)CN[C@@H]2COC3(CCN(S(=O)(=O)c4cccc(-c5ccc(CNCCC(C)C)cc5)c4)CC3)C2)c1` [Compound 361, 3-((S)-2-hydroxy-3-((S)-8-(4′-((isopentylamino)methyl)biphenyl-3-ylsulfonyl)-1-oxa-8-azaspiro[4.5]decan-3-ylamino)propoxy)-N-methylbenzenesulfonamide], the IC50 was determined as 22.1 nM.
